Literature values as cited in patent US12419848B2, “Treatment of hyperinflammatory syndrome” (priority 2020, dated 2025).

Legend:
[1] = biological target: T1, P2X7R (Homo sapiens, UniProt Q99572); details: read-out: EC50 to activate P2X7R; cited from earlier work
T1 sequence (Q99572 1-595): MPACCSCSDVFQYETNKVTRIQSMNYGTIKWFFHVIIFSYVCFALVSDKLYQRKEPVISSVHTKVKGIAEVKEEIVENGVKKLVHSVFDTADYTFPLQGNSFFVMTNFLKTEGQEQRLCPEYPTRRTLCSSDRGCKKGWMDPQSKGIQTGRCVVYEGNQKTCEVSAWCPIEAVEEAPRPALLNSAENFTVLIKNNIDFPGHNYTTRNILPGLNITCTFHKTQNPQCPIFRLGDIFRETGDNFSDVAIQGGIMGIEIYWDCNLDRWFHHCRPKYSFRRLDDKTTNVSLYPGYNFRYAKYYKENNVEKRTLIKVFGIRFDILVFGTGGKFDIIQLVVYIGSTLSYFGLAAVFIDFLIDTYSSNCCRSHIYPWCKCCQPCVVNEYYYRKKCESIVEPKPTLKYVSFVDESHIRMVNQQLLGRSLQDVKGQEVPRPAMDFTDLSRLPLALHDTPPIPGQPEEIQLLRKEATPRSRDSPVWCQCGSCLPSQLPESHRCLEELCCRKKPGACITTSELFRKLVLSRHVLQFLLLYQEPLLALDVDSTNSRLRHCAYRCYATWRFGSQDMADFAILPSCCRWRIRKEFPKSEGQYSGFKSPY

[2] = biological target: P1 receptors; details: cited from earlier work

Row | Structure (SMILES) | EC50 [1] [µM] | EC50 (extracellular concentration for half maximal effect) [2]
1 | Nc1ncnc2c1ncn2[C@@H]1O[C@H](COP(=O)(O)OP(=O)(O)OP(=O)(O)O)[C@@H](O)[C@H]1O [ATP] | > 1000 | –
2 | Nc1ncnc2c1ncn2[C@@H]1O[C@H](CO)[C@@H](O)[C@H]1O [adenosine] | – | nanomolar range
